Consider 9 compounds from US5770575A, “Nipecotic acid derivatives as antithrombotic compounds” (Ortho Pharmaceutical Corporation, priority 1995, dated 1998).

For one assay, the target named is T1, GPIIb/IIIa (Homo sapiens, UniProt P05106+P08514).
T1 sequence (P08514 32-887 limits assumed): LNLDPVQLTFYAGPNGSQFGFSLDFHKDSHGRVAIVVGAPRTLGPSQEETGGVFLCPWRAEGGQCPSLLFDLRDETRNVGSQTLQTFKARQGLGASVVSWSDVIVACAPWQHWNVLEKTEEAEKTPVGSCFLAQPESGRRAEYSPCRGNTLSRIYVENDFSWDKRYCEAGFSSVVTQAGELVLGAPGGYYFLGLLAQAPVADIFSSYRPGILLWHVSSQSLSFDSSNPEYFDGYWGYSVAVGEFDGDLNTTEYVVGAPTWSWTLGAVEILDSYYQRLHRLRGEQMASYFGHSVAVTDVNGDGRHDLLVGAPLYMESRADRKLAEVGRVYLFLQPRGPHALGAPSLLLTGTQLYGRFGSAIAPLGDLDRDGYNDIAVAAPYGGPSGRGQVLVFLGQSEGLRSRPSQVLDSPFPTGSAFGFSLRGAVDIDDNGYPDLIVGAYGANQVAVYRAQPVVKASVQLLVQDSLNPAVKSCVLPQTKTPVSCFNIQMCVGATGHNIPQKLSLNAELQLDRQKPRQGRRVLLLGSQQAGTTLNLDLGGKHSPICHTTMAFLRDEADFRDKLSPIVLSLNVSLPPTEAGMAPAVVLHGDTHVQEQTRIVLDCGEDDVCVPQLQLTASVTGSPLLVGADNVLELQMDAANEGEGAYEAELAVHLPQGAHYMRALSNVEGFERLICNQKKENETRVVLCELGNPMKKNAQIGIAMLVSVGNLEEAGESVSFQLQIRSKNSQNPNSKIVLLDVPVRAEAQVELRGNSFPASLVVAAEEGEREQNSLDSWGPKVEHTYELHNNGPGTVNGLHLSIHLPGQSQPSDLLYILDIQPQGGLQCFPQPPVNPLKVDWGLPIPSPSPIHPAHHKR
T1 sequence (P05106 27-788): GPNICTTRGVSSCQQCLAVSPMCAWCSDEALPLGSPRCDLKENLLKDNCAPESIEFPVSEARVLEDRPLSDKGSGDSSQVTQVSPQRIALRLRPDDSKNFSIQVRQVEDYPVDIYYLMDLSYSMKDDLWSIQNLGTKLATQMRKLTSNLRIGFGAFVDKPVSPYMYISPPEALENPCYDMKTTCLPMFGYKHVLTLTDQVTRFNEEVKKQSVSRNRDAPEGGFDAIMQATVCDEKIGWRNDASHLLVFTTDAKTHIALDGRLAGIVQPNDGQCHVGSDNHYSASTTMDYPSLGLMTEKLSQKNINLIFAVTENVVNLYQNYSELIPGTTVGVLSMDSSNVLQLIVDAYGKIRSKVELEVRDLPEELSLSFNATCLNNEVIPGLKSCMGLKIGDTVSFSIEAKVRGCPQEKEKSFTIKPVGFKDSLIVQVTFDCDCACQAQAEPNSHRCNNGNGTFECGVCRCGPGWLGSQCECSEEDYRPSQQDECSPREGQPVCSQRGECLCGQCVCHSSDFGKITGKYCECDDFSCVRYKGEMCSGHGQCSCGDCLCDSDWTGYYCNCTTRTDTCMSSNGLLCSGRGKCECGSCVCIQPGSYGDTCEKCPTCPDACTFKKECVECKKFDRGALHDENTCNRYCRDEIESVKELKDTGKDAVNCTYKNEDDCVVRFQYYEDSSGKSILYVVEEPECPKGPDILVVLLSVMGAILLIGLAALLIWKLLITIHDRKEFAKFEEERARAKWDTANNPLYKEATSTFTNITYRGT
Description: In vitro solid phase purified glycoprotein IIb/IIIa binding assay (biotinylated fibrinogen). The conditions noted are these: Table I. An excerpt: The compounds of the present invention interrupt binding of fibrinogen to platelet glycoprotein IIb/IIIa (GPIIb/IIIa) and thereby inhibit platelet aggregation. […] Because the final, common pathway in normal platelet aggregation is the binding of fibrinogen to activated, exposed GPIIb/IIIa, inhibition of this binding represents a plausible antithrombotic approach. The receptor is activated by stimuli such as ADP, collagen, and thrombin, exposing binding domains to two different peptide regions of fibrinogen: α-chain Arg-Gly-Asp (RGD) and γ-chain 400-411.
IN VITRO SOLID PHASE PURIFIED GLYCOPROTEIN IIB/IIIA BINDING ASSAY.
The plate is covered and incubated overnight at 4° C. The GPIIb/IIa solution is discarded and 150 μl of 5% BSA is added and incubated at RT for 1-3 h. The plate is washed extensively with modified Tyrodes buffer. Biotinylated fibrinogen (25 μl/well) at 2× final concentration is added to the wells that contain the test compounds (25 μl/well) at 2× final concentration. The plate is covered and incubated at RT for 2-4 h. Twenty minutes prior to incubation completion, one drop of Reagent A (Vecta Stain ABC Horse Radish Peroxidase kit, Vector Laboratories, Inc.) and one drop Reagent B are added with mixing to 5 mL modified Tyrodes buffer mix and let stand. The ligand solution is discarded and the plate washed (5×200 μl/well) with modified Tyrodes buffer. Vecta Stain HRP-Biotin-Avidin reagent (50 μl/well, as prepared above) is added and incubated at RT for 15 min. The Vecta Stain solution is discarded and the wells washed (5×200 μl/well) with modified Tyrodes buffer. […] The absorbance is read at 490 nm.
As for `CC(C)(C)OC(=O)N[C@@H](CCCCNC(=O)OCc1ccccc1)C(=O)N1CCCC(C(=O)NCCC(=O)OCc2ccccc2)C1` (stereo partly drawn) [Compound 1, Nα-Boc-L-Lys(Cbz)-Nip-Ala-OBn], the IC50 came to 20100 nM.

For `CC(C)(C)OC(=O)N[C@@H](CCCCN)C(=O)N1CCCC(C(=O)NCCC(=O)O)C1` (stereo partly drawn) [Compound 2, Nα-Boc-L-Lys-Nip-γ-Ala--OH], the IC50 stood at 740 nM.

`NCCCC[C@H](N)C(=O)N1CCCC(C(=O)NCCC(=O)O)C1` (stereo partly drawn) [Compound 4, H-L-Lys-Nip-γ-Ala-OH]: the half-inhibitory concentration (IC50) stood at 2600 nM.

`CC(=O)N[C@@H](CCCCN)C(=O)N1CCCC(C(=O)NCCC(=O)O)C1` (stereo partly drawn) [Compound 7, Nα-Ac-L-Lys-Nip-β-Ala-OH] displayed a half-maximal inhibitory concentration (IC50) of 74 nM.

Consider `NCCCC[C@@H](N)C(=O)N1CCCC(C(=O)NCCC(=O)O)C1` (stereo partly drawn) [Compound 10, H-D-Lys-Nip-β-Ala-OH], for which the half-maximal inhibitory concentration (IC50) is 760 nM.

For `CC(=O)N[C@H](CCCCN)C(=O)N1CCCC(C(=O)NCCC(=O)O)C1` (stereo partly drawn) [Compound 13, Nα-Ac-D s-Nip-β-Ala-OH], the IC50 amounted to 340 nM.

The assay is the same for the next values; noted with them: read-out: Binding (column Binding IC50), % @ 5 μM.
For `CC(C)NCCCC[C@H](NC(=O)OC(C)(C)C)C(=O)N1CCCC(C(=O)NCCC(=O)O)C1` (stereo partly drawn) [Compound 15, Nα-Boc-L-Lys(i-Pr)-Nip-β-Ala-OH], the inhibition at 5 µM came to 20%.

The same assay, now with this note: read-out: Binding (column Binding IC50), % @ 50 μM.
In the case of `CC(=O)N[C@@H](CCCCN)C(=O)N1CCCC(C(=O)NCC(=O)O)C1` (stereo partly drawn) [Compound 6, Nα-Ac-L-Lys-Nip-Gly-OH], the inhibition at 50 µM came to 24%.

Regarding `CC(C)(C)OC(=O)N[C@@H](CCCCN)C(=O)N1CCCC(C(=O)NCCCC(=O)O)C1` (stereo partly drawn) [Compound 9, Nα-Boc-L-Lys-Nip-γ-aminobutyric acid], the inhibition at 50 µM was found to be 59%.
